Reference: BindingDB's records for doi:10.1016/S0960-894X(00)80281-4 (1993)

Test: Tested for inhibition against purified catalytic subunit of protein phosphatase-1 from rabbit skeletal muscle

## C/C=C1/C(=O)N[C@@H](C(=O)O)[C@H](C)C(=O)N[C@@H](C(C)C)C(=O)N[C@@H](/C=C/C(C)=C/[C@H](C)[C@H](Cc2ccccc2)OC)[C@H](C)C(=O)N[C@@H](C(=O)O)CCC(=O)N1C [Motuporin]
  IC50: < 1 nM
